Measurements as given in patent US8916716B2, “Process for the preparation of crystalline form II of L-malic acid salt of sunitinib” (Ranbaxy Laboratories Limited, priority 2009, dated 2014).

What was measured:
[1] = Solid form stability on storage, followed by XRPD; assay type: physicochemical; conditions: storage for about 20 days or more
Experimental: The XRPD of the samples were determined by using Panalytical X'Pert Pro X-Ray Powder Diffractometer in the range 3-40 degree 2 theta and under tube voltage and current of 45 Kv and 40 mA respectively. Copper radiation of wavelength 1.54 angstrom and Xceletor detector was used.
The solvent was evaporated at a temperature of about 60° C. to about 65° C. through spray drying.

[2] = Moisture content by KF, initial and after storage; assay type: physicochemical
[3] = described in WO 2009/104021; cited from earlier work

CCN(CC)CCNC(=O)c1c(C)[nH]c(/C=C2\C(=O)Nc3ccc(F)cc32)c1C [Example 1, butanedioic acid, hydroxy-, (2S)—, compound with N-[2-(diethylamino)ethyl]-5-[(Z)-(5-fluoro-1,2-dihydro-2-oxo-3H-indol-3-ylidine)methyl]-2,4-dimethyl-1H-pyrrole-3-carboxamide (1:1)]
conversion into any other solid form on storage [1]: does not convert into any other solid form | Moisture content by KF ([2]; after storage at 20° C. to 25° C. for 60 days): 5.52% | moisture absorbed (level) ([2]; general statement on the stable Form II): not more than 2% | Moisture content by KF ([2]; initial): 4.48%

CCN(CC)CCNC(=O)c1c(C)[nH]c(/C=C2\C(=O)Nc3ccc(F)cc32)c1C [Form II of sunitinib L-malate, butanedioic acid, hydroxy-, (2S)—, compound with N-[2-(diethylamino)ethyl]-5-[(Z)-(5-fluoro-1,2-dihydro-2-oxo-3H-indol-3-ylidine)methyl]-2,4-dimethyl-1H-pyrrole-3-carboxamide (1:1)]
conversion to another crystal form [3]: appears to readily convert to Form I | hygroscopicity [3]: hygroscopic | thermodynamic stability [3]: thermodynamically unstable
